Laboratory results from EP0579833B1, “ETHANOLAMINE DERIVATIVES WITH ANTI-POLLAKIURIA ACTIVITY” (FUJISAWA PHARMACEUTICAL CO., LTD., priority 1991, dated 1992).

Assays:
[1] = test system: isolated non-pregnant rat uterus; test: Effect on isolated non-pregnant rat uterus (spontaneous contractions, organ bath); parameters: species or system tissue; conditions: spontaneous contractions of uterine horn strip from estradiol-treated female SD rats, Locke solution, 37°C, 1 g tension, observed over 20 minutes
Procedure: Female SD rats (l50∼l80 g) were used. 48 and 24 hours prior to use, rats were given estradiol (ovahormon benzoat : Trademark, Teikoku Hormone Mfg. Co., Ltd.) subcutaneously at a dose of 40 µg/rat to induce oestrus. The animals were killed and uterine horns were removed. Each strip was placed in an organ bath containing 25 ml Locke solution aerating with 95% O2, 5% CO2 at 37°C under l g tension. Contractions were recorded isometrically. After the spontaneous contractions were of a uniform size, test compound was added to organ bath. The motility was observed over a 20 minutes period. Effect of test compound was calculated by comparing contractions before and after test compound.

[2] = test system: isolated rat distal colon; test: Effect on isolated rat distal colon (spontaneous contractions, organ bath); type: tissue-based; conditions: spontaneous contractions of distal colon strip from male SD rats, Tyrode solution, 37°C, 0.5 g tension, observed over 30 minutes
Procedure: Male SD rats (l80∼230 g) were used. Animals were fasted for 24 hours prior to experiment. Distal colon was removed immediately after sacrifice and placed in an organ bath containing 25 ml Tyrode solution aerating with 95% O2, 5% CO2 at 37°C. The strip was mounted under 0.5 g tension and spontaneous contractions were recorded isometrically. After the motility was of a uniform size, test compound was added to an organ bath and the contractions were observed over a 30 minutes period. Effect of test compound was calculated by comparing contractions before and after test compound.

- IC50 [1]: 510 nM
- IC50 [2]: 1.9 nM
Substance: (1R,1'R,2'R)- and (1R,1'S,2'S)-1-(3-chlorophenyl)-2-[(7-ethoxycarbonylmethoxy-l-hydroxy-l,2,3,4-tetrahydro-2- naphthyl)amino]ethanol hydrochloride [Example 2]
